Measurements from PMC11995866, “Roles of basic amino acid residues in substrate binding and transport of the light-driven anion pump Synechocystis halorhodopsin (SyHR)” (The Journal of Biological Chemistry, 2025).
Numbering of substitutions follows the chain as printed.

How the values were obtained:
[1] = target: T1, Synechocystis halorhodopsin (SyHR) (Synechocystis sp. PCC 7509, UniProt A0A9X9ZA75, R71K); test: absorption spectral shift titration (UV-visible), single-site Hill fit; format: binding
T1 construct: codon-optimised, C-terminal His6 tag, pET21a, E. coli BL21(DE3) with all-trans retinal; HisTrap-purified in DDM
T1 sequence (A0A9X9ZA75 1-234 R71K): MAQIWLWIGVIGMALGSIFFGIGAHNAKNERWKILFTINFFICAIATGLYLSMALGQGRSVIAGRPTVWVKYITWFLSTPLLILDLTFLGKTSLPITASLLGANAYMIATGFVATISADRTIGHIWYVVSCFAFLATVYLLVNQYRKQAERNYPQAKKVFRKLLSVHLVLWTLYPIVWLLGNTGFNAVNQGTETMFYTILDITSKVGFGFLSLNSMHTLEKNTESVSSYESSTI

[2] = target: T2, Synechocystis halorhodopsin (SyHR) (Synechocystis sp. PCC 7509, UniProt A0A9X9ZA75); test: as above; format: binding
T2 construct: codon-optimised, C-terminal His6 tag, pET21a, E. coli BL21(DE3) with all-trans retinal; HisTrap-purified in DDM
T2 sequence (A0A9X9ZA75 1-234): T1 sequence (A0A9X9ZA75 1-234 R71K) with K71R

[3] = target: T3, Synechocystis halorhodopsin (SyHR) (Synechocystis sp. PCC 7509, UniProt A0A9X9ZA75, H167A); test: as above; format: binding
T3 construct: codon-optimised, C-terminal His6 tag, pET21a, E. coli BL21(DE3) with all-trans retinal; HisTrap-purified in DDM
T3 sequence (A0A9X9ZA75 1-234 H167A): T1 sequence (A0A9X9ZA75 1-234 R71K) with K71R, H167A

[4] = target: T4, Synechocystis halorhodopsin (SyHR) (Synechocystis sp. PCC 7509, UniProt A0A9X9ZA75, R71A); test: biochemical
T4 sequence (A0A9X9ZA75 1-234 R71A): T1 sequence (A0A9X9ZA75 1-234 R71K) with K71A

[5] = target: T5, Synechocystis halorhodopsin (SyHR) (Synechocystis sp. PCC 7509, UniProt A0A9X9ZA75, R71Y); test: biochemical
T5 sequence (A0A9X9ZA75 1-234 R71Y): T1 sequence (A0A9X9ZA75 1-234 R71K) with K71Y

SMILES | Kd [1] | Kd [2] | Kd [3] | Kd [4] | Kd [5]
O=S(=O)(O)O [SO4^2−] | 3800 µM | 3600 µM | 6500 µM | – | –
Cl [Cl^−] | 550 µM | 590 µM | 360 µM | 4500 µM | 1400 µM
